Paper PMC4979471 (Cell Death Discovery, 2015)
Like-named read-outs stand apart in the source and are kept apart here.

Legend:
Test in all cases: Kinase selectivity, P33-radiolabeled assay
Assay type in all cases: biochemical
Details in all cases: 10 μM ATP
GRK4 = biological target: T1, GRK4 (Homo sapiens, UniProt P32298)
T1 construct: purchased Reaction Biology Corp
In short: (§1)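 Each enzyme was exposed to 10 μM compound, with duplicate measurements, in reactions containing 10 μM ATP. Numbers are remaining activity as a percent of the vehicle (DMSO) signal.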

ITK = biological target: T2, ITK (Homo sapiens, UniProt Q08881)
T2 construct: purchased Reaction Biology Corp
T2 sequence (Q08881 1-620): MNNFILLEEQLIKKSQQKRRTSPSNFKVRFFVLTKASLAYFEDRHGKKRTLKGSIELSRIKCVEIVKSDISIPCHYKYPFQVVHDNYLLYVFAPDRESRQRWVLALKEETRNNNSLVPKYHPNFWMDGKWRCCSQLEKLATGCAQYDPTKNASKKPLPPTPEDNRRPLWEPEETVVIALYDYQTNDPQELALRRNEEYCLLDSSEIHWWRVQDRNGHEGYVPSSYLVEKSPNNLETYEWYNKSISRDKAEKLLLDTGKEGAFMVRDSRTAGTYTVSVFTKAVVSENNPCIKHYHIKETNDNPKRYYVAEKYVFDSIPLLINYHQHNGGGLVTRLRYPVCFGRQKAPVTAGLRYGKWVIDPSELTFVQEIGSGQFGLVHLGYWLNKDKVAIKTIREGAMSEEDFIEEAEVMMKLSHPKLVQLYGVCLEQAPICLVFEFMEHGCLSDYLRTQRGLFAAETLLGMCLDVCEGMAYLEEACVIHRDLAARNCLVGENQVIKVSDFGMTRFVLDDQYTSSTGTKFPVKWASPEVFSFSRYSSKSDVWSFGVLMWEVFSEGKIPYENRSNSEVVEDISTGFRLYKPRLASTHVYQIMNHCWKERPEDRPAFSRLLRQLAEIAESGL
In short: as §1

LATS1 = biological target: T3, LATS1 (Homo sapiens, UniProt O95835)
T3 construct: purchased Reaction Biology Corp
T3 sequence (O95835 1-1130): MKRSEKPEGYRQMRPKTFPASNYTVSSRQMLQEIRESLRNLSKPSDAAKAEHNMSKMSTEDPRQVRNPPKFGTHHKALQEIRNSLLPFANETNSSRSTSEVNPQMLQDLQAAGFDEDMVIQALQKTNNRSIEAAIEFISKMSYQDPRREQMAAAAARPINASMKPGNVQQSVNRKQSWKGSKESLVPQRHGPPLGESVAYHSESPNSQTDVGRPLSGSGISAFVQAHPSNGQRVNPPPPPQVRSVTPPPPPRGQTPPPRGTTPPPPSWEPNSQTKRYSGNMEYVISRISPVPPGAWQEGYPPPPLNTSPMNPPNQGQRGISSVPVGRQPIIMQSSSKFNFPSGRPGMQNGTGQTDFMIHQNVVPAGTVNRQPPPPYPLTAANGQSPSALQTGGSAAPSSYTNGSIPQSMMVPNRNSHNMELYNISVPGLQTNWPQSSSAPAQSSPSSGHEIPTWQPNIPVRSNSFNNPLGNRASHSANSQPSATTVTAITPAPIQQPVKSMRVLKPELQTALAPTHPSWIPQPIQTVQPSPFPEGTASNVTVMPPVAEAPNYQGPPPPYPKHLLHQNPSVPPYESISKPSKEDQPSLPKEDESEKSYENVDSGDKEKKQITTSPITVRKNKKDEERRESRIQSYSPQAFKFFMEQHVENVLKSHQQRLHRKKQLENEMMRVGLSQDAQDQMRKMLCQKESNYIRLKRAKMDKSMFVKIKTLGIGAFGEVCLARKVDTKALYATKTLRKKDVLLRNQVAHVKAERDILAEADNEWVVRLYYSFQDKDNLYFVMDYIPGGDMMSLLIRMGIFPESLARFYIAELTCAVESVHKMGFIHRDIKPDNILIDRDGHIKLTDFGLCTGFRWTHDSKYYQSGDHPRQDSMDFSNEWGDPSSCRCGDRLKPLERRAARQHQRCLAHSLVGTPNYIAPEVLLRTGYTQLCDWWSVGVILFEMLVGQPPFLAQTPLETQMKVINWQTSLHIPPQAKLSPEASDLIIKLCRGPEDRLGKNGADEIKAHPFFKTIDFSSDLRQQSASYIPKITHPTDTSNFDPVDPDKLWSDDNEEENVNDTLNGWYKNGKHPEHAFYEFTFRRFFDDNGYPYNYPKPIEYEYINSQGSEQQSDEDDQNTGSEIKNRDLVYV
In short: as §1

MAPKAPK2 = biological target: T4, MAPKAPK2 (Homo sapiens, UniProt P49137)
T4 construct: purchased Reaction Biology Corp
T4 sequence (P49137 whole entry): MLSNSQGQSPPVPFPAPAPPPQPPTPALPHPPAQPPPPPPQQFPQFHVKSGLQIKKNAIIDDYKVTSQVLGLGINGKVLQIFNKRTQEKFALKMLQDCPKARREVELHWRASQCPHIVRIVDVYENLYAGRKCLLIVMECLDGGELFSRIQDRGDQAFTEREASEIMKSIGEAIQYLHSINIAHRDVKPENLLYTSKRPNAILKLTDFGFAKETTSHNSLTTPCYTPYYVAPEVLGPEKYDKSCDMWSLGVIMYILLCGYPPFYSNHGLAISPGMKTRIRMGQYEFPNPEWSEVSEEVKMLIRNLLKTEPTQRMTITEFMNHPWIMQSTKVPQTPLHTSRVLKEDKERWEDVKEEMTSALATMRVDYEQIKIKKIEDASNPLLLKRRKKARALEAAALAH
In short: as §1

[1] = read-out: % Enzyme Activity (relative to DMSO controls) AVG
[2] = read-out: % Enzyme Activity (relative to DMSO controls) Data 1
[3] = read-out: % Enzyme Activity (relative to DMSO controls) Data 2

T1 sequence (P32298 whole entry): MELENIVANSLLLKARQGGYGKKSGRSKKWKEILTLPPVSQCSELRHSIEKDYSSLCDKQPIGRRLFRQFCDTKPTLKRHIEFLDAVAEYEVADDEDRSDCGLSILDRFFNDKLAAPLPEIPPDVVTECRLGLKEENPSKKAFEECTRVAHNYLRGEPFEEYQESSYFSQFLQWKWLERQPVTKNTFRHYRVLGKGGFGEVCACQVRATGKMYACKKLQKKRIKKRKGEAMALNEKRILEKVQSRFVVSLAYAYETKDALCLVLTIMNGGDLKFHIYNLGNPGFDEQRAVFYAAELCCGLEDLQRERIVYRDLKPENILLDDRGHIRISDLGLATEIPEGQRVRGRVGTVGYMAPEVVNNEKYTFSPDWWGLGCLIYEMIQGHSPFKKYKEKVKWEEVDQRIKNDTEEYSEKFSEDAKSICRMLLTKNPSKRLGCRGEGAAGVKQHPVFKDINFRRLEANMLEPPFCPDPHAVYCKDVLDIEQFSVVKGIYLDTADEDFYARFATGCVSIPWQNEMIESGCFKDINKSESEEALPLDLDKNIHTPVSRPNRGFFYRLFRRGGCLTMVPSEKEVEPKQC

Q: What does the source list for CC(C)(C)C(=O)N1N=CC[C@H]1c1ccccc1 [GSK′963]?
A: remaining activity at 10 µM (GRK4; [1]): 97.9%; remaining activity at 10 µM (GRK4; [2]): 97.9%; remaining activity at 10 µM (GRK4; [3]): 97.8%; remaining activity at 10 µM (ITK; [1]): 102%; remaining activity at 10 µM (ITK; [2]): 95.2%; remaining activity at 10 µM (ITK; [3]): 108%; remaining activity at 10 µM (LATS1; [1]): 103%; remaining activity at 10 µM (LATS1; [2]): 103%; remaining activity at 10 µM (LATS1; [3]): 102%; remaining activity at 10 µM (MAPKAPK2; [1]): 112%; remaining activity at 10 µM (MAPKAPK2; [2]): 115%; remaining activity at 10 µM (MAPKAPK2; [3]): 109%
